pIC50: −log10 of the molar value.
Legend:
[1] = target: T1, human NAT1 (Homo sapiens, UniProt P18440); assay: N-acetylation by recombinant human NAT1; assay type: in vitro ADME; conditions: for % Conversion NAT1: compound 100 μM, 37° C., 120 min, N-acyl product by HPLC; for susceptibility to N-acetylation by NAT1, in words: human recombinant NAT1
T1 construct: purchased BD Gentest (Bedford, Mass.); host or cells: insect cells
T1 sequence (P18440 1-290): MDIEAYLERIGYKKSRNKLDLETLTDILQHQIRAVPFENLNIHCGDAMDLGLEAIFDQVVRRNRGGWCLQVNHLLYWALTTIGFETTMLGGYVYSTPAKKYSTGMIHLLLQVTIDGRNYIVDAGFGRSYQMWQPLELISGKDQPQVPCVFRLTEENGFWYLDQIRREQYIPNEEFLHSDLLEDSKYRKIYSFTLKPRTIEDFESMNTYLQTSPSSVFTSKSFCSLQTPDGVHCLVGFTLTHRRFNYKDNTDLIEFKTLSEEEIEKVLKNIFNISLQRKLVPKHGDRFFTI
Method: (§1) Insect cell-expressed human NAT1 and NAT2 and control insect cytosol were obtained from BD Gentest (Bedford, Mass.). Compounds (100 μM) were incubated in 0.25 mL of NAT reaction cocktail consisting of 25 mM potassium phosphate pH 7.4 (at 25° C.), 1 mM EDTA, 1 mM DTT, 0.5 mM acetyl CoA, 5 mM acetyl-DL-carnitine, 20 u/mL acetyltransferase and either NAT1, NAT2 or control insect cytosol (0.1 mg/mL). Reactions were performed in an Eppendorf Thermomixer (37° C., 120 min.). At 0 and 120 min., 100 μl of each reaction was removed and added to a clean 1.7 mL tube containing 150 μl of 100% methanol. The tubes were vortexed and centrifuged at 14,000 rpm for 10 min. in an Eppendorf microcentrifuge (room temperature, 5 min., 14,000 rpm). The supernatants were analyzed by HPLC (Agilent 1100 series) using a Phenosphere C18 column (5 micron, 150×4.6 mm). The column was equilibrated with 20 mM potassium phosphate pH 4.5 or pH 6.2 (at 25° C.) and eluted with a linear gradient to 80% acetonitrile. The percent conversion of the compounds was calculated from the following equation: area of N-acyl product divided by (area of compound+area of N-acyl product), multiplied by 100.

[2] = target: T2, human liver FBPase (Homo sapiens, UniProt P09467); assay: Inhibition of human liver FBPase; assay type: biochemical; conditions: purified recombinant human liver FBPase, 0.150 mM fructose 1,6-bisphosphate, 37° C.; read-out: IC50 (hlFBPase)
T2 construct: made in house; host or cells: E. coli BL21
T2 sequence (P09467 2-338 limits assumed): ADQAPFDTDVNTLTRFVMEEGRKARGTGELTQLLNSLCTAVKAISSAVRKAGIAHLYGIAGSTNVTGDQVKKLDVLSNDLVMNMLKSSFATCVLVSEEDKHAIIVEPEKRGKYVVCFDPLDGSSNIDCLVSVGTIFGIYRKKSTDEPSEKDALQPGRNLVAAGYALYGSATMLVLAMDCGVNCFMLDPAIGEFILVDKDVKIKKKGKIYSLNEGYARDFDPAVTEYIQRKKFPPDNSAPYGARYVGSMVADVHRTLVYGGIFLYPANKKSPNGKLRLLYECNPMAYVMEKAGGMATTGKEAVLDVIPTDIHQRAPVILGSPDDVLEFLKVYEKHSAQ
Method: E. coli strain BL21 transformed with a human liver FBPase-encoding plasmid was obtained from Dr. M. R. El-Maghrabi at the State University of New York at Stony Brook. […] Enzymatic activity was measured spectrophotometrically in reactions that coupled the formation of product (fructose 6-phosphate) to the reduction of dimethylthiazoldiphenyltetrazolium bromide (MTT) via NADP^+ and phenazine methosulfate (PMS), using phosphoglucose isomerase and glucose 6-phosphate dehydrogenase as the coupling enzymes. Reaction mixtures (200 μl) were made up in 96-well microtitre plates, and consisted of 50 mM Tris-HCl, pH 7.4, 100 mM KCl, 5 mM EGTA, 2 mM MgCl2, 0.2 mM NADP, 1 mg/ml BSA, 1 mM MTT, 0.6 mM PMS, 1 unit/ml phosphoglucose isomerase, 2 units/ml glucose 6-phosphate dehydrogenase, and 0.150 mM substrate (fructose 1,6-bisphosphate). Inhibitor concentrations were varied from 0.01 μM to 10 μM. Reactions were started by the addition of 0.002 units of pure hlFBPase, and were monitored for 7 min. at 590 nm in a Molecular Devices Plate Reader (37° C.).

[3] = system: Sprague-Dawley rats; assay: Glucose lowering following oral administration to the fasted, normal rat; assay type: in vivo; conditions: maximum lowering relative to saline controls, 10 mg/kg oral, 18-h fasted rats
Method: Compounds were administered by oral gavage to 18-h fasted, Sprague-Dawley rats (250-300 g, n=3/4/group) at a dose of 10 mg/kg. Phosphonic acids (active moieties) were prepared in deionized water, and the solution adjusted to neutrality with sodium hydroxide. Prodrugs were dissolved in polyethylene glycol (mw 400). Blood samples were taken via tail vein nick immediately prior to dosing and at 1 h intervals thereafter. Blood glucose was analyzed by means of a HemoCue glucose analyzer (HemoCue Inc., Mission Viejo, Calif.). The table below indicates the maximum % glucose lowering achieved relative to control animals dosed with saline.

[4] = system: ZDF rats; assay: Blood glucose lowering in the Zucker Diabetic Fatty (ZDF) rat; assay type: in vivo; conditions: for glucose lowering compared to vehicle-treated rats: 10 mg/kg oral in PEG-400, at 6 h, fasting ZDF rats; for duration of action: ZDF rat, oral, 2.1 at 10-300 mg/kg
Method: Nine week old ZDF rats were fasted at 7 am and screened for hyperglycemia (BG>300 mg/dl) at 12:30 pm. […] Food was withheld for 6 to 9 h. Blood samples were collected intermittently from the tail vein and diluted 1:2 (v:v) in 20% glycerol-saline with 20 U/ml heparin. Blood glucose was determined by means of a Hemocue glucose analyzer (Hemocue Inc., Mission Viejo, Calif.) used according to the instructions of the manufacturer. Results were expressed as means ±standard errors of the mean (sem) for all values. Differences between treatment and vehicle-treated animals were evaluated using ANOVA with Dunnett's post-hoc analysis or Tukey-Kramer's post hoc analysis when all differences are compared. Differences are considered significant when p≦0.05.

[5] = target: T3, human NAT2 (Homo sapiens, UniProt P11245); conditions: for % Conversion NAT2: human, 120 min, 100 μM, pH 7.4
T3 sequence (P11245 1-290): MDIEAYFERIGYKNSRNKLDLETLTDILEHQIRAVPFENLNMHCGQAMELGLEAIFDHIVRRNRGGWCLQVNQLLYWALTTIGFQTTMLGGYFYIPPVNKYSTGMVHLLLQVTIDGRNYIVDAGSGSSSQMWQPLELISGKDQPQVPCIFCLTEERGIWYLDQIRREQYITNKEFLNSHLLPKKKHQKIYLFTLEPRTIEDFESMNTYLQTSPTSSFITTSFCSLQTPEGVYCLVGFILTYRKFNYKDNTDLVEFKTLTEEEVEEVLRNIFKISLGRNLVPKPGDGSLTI
Method: as §1

[6] = Variability of N-acetylation in human liver S9 fractions; assay type: in vitro ADME; conditions: 100 μM, S9 10 mg/mL protein; donors with high or low N-acetylase activity
Method: The reactions are incubated, processed, and analyzed as described in Example C.

With CCC(C)(C)Cc1sc(N)nc1-c1ccc(P(=O)(O)O)o1 [Compound 3.3, reference compound] the “% Conversion NAT1” value [1] was 4.6%.

In the case of CCC(C)(CC)C(=O)c1sc(N)nc1-c1ccc(P(=O)(O)O)o1 [Compound 1.3, [5-(2-amino-5-(2-ethyl-2-methyl-butyryl)thiazol-4-yl)furan-2-yl]phosphonic acid], the melting point was 202 to 205 °C, the pIC50 [2] was 7.74 and the “% Conversion NAT1” value [1] was 0%. The “susceptibility to N-acetylation by NAT1, in words” value (shortened to “susceptibility … by NAT1, in words”) [1] was “not metabolized”.

Compound CCOC(=O)CNP(=O)(NCC(=O)OCC)c1ccc(-c2nc(N)sc2C(=O)C(C)(C)C)o1 [Compound 2.4] has a melting point of 86 to 88 °C and an inhibition in vivo at 10 mg/kg [3] of 22%.

In the case of CC(=O)c1sc(N)nc1-c1ccc(P(=O)(O)O)o1 [Compound 1.4, [5-(2-amino-5-acetylthiazol-4-yl)furan-2-yl]phosphonic acid], the melting point was > 207 °C and the pIC50 [2] was 7.18.

With Nc1nc(-c2ccc(P(=O)(O)O)o2)c(C(=O)c2ccccc2)s1 [Compound 1.5, [5-(2-amino-5-benzoylthiazol-4-yl)furan-2-yl]phosphonic acid] the melting point was > 210 °C and the pIC50 [2] was 7.25.

In the case of CCOC(=O)C(C)(C)NP(=O)(NC(C)(C)C(=O)OCC)c1ccc(-c2nc(N)sc2C(=O)C(C)(C)C)o1 [Compound 2.1], the melting point was 149 to 152 °C, the pIC50 [2] was < 4.00 and the “glucose lowering compared to vehicle-treated rats” value [4] was 30%. The duration of action [4] was > 9 h, the “% Conversion NAT1” value [1] was 0% and the “susceptibility … by NAT1, in words” value [1] was “insusceptible”. The inhibition in vivo at 10 mg/kg [3] was 68%, the “susceptibility to N-acetylation by NAT2, in words” value (from here on “susceptibility … by NAT2, in words”) [5] was “insusceptible” and the “% Conversion NAT2” value [5] was 0%. The “conversion to N-acetylated metabolite in human liver S9 from various donors” value [6] was “no conversion”.

With CCC(C)Cc1sc(N)nc1-c1ccc(P(=O)(O)O)o1 (stereo not shown) [Compound 3.5, reference compound] the “% Conversion NAT1” value [1] was 14.2%.

With CCOC(=O)[C@H](C)NP(=O)(N[C@@H](C)C(=O)OCC)c1ccc(-c2nc(N)sc2CC(C)C)o1 [Compound 4.6, reference compound] the pIC50 [2] was < 4.00, the “glucose lowering compared to vehicle-treated rats” value [4] was 14% and the duration of action [4] was ~3 h. The “% Conversion NAT1” value [1] was 6.3%, the “susceptibility … by NAT2, in words” value [5] was “extensively metabolized” and the “% Conversion NAT2” value [5] was 62.4%. The “conversion to N-acetylated metabolite in human liver S9 from various donors” value [6] was “high levels”.

In the case of Nc1nc(-c2ccc(P(=O)(O)O)o2)c(CC2CCCC2)s1 [Compound 3.2, reference compound], the “% Conversion NAT1” value [1] was 22.3%.

For CCC(C)(C)C(=O)c1sc(N)nc1-c1ccc(P(=O)(O)O)o1 [Compound 1.2, {5-[2-amino-5-(2,2-dimethyl-butyryl)thiazol-4-yl]furan-2-yl}phosphonic acid], the pIC50 [2] was 7.60, the “% Conversion NAT1” value [1] was 0% and the “susceptibility … by NAT1, in words” value [1] was “not metabolized”.

In the case of CCOC(=O)C(C)(C)NP(=O)(NC(C)(C)C(=O)OCC)c1ccc(-c2nc(N)sc2C(=O)C(C)(CC)CC)o1 [Compound 2.5], the melting point was 157 to 160 °C and the inhibition in vivo at 10 mg/kg [3] was 15%.

In the case of CCOC(=O)[C@H](C)NP(=O)(N[C@@H](C)C(=O)OCC)c1ccc(-c2nc(N)sc2C(=O)C(C)(C)C)o1 [Compound 2.2, 2-amino-5-(2,2-dimethylpropionyl)-4-{[5-(N,N′-((S)-1-ethoxycarbonyl)-ethyl)phosphonamido]furan-2-yl}thiazole], the inhibition in vivo at 10 mg/kg [3] was 25%, the “susceptibility … by NAT2, in words” value [5] was “insusceptible” and the “% Conversion NAT2” value [5] was 0%.

In the case of CCC(C)(CC)C(=O)c1sc(N)nc1-c1ccc(P(=O)(NC(C)(C)C(=O)OC(C)C)NC(C)(C)C(=O)OC(C)C)o1 [Compound 2.6], the melting point was 160 to 164 °C and the inhibition in vivo at 10 mg/kg [3] was 12%.

In the case of CC(C)c1sc(N)nc1-c1ccc(P(=O)(O)O)o1 [Compound 3.4, reference compound], the “% Conversion NAT1” value [1] was 14.0%.

With CC(C)OC(=O)C(C)(C)NP(=O)(NC(C)(C)C(=O)OC(C)C)c1ccc(-c2nc(N)sc2C(=O)C(C)(C)C)o1 [Compound 2.3] the inhibition in vivo at 10 mg/kg [3] was 27%, the “susceptibility … by NAT2, in words” value [5] was “insusceptible” and the “% Conversion NAT2” value [5] was 0%.

In the case of Nc1nc(-c2ccc(P(=O)(O)O)o2)c(C(=O)C2CCC2)s1 [Compound 1.34, [5-(2-amino-5-cyclobutylcarbonylthiazol-4-yl)furan-2-yl]-phosphonic acid], the pIC50 [2] was 7.80.

Nc1nc(-c2ccc(P(=O)(O)O)o2)c(C(=O)c2cccs2)s1 [Compound 1.7, [5-(2-amino-5-(2-thienylcarbonyl)thiazol-4-yl)furan-2-yl]-phosphonic acid] showed a pIC50 [2] of 7.39.

For Nc1nc(-c2ccc(P(=O)(O)O)o2)c(C(=O)c2ccc(N3CCOCC3)c(Cl)c2)s1 [Compound 1.25, [5-(2-amino-5-(3-chloro-4-(1-morpholinyl)benzoyl)-thiazol-4-yl)furan-2-yl]phosphonic acid], the pIC50 [2] was 7.02.

In the case of Nc1nc(-c2ccc(P(=O)(O)O)o2)c(C(=O)c2ccc(F)cc2)s1 [Compound 1.22, [5-(2-amino-5-(4-fluorobenzoyl)thiazol-4-yl)furan-2-yl]-phosphonic acid], the pIC50 [2] was 7.48.

Nc1nc(-c2ccc(P(=O)(O)O)o2)c(C(=O)c2ccccc2C(F)(F)F)s1 [Compound 1.27, [5-(2-amino-5-(2-trifluoromethylbenzoyl)thiazol-4-yl)-furan-2-yl]phosphonic acid] showed a pIC50 [2] of 6.95.
